Key:
Melanocortin receptor 5 [1] = molecular target: T1, Melanocortin receptor 5 (Homo sapiens, UniProt P33032); assay: Displacement of sCy5-MT-I from human MC5R stably expressed in human HEK293 cells incubated for 2 hrs by Cheng-Prusoff equation based FACS analysis; type: cell-based
[2] = molecular target: T2, Melanocyte-stimulating hormone receptor (Homo sapiens, UniProt Q01726); assay: Agonist activity at human MC1R stably expressed in human Flp-In-293 cells assessed as cAMP accumulation at 1 uM incubated for 45 mins in presence of IBMX by Lance Ultra cAMP assay; type: functional, cell-based; conditions: filed as agonist
Target sequence in this assay (Q01726 whole entry, looked up): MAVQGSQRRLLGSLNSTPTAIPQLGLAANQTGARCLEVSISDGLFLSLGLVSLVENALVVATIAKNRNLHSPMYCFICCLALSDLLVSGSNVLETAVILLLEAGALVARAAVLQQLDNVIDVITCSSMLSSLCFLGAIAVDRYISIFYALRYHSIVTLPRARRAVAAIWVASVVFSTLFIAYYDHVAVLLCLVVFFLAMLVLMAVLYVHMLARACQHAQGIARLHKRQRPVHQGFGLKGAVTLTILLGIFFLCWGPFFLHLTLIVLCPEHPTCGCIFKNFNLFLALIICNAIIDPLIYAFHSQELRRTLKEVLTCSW

Melanocortin receptor 4 [3] = molecular target: T3, Melanocortin receptor 4 (Homo sapiens, UniProt P32245); assay: Displacement of sCy5-MT-I from human MC4R stably expressed in human HEK293 cells incubated for 2 hrs by Cheng-Prusoff equation based FACS analysis; type: cell-based
T3 sequence (P32245 whole entry): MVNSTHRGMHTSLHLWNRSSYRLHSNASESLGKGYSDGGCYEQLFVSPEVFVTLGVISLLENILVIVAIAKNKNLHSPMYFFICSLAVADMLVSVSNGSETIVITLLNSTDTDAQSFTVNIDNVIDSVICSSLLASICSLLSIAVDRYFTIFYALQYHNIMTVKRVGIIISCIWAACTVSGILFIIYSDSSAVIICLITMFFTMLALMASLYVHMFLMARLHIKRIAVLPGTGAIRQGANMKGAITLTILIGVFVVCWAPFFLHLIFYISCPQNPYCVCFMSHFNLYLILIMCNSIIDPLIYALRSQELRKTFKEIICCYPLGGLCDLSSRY

[4] = molecular target: T2, Melanocyte-stimulating hormone receptor; assay: Displacement of sCy5-MT-I from human MC1R stably expressed in human HEK293 cells incubated for 2 hrs by Cheng-Prusoff equation based FACS analysis; type: cell-based
Target sequence in this assay (Q01726 whole entry): as the sequence (Q01726 whole entry, looked up) above

Melanocortin receptor 3 [5] = molecular target: T4, Melanocortin receptor 3 (Homo sapiens, UniProt P41968); assay: Displacement of sCy5-MT-I from human MC3R stably expressed in human HEK293 cells incubated for 2 hrs by Cheng-Prusoff equation based FACS analysis; type: cell-based
T4 sequence (P41968 whole entry): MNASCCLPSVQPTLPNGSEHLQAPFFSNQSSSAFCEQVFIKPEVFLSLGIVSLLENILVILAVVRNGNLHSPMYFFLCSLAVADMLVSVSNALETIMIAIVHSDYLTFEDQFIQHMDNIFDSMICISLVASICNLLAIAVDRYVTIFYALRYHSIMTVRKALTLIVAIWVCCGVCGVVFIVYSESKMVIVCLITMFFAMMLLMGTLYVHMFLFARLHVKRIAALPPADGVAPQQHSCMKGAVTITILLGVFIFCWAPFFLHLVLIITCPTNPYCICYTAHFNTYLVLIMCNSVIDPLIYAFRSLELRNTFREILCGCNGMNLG

Melanocortin receptor 3 [6] = molecular target: T4, Melanocortin receptor 3; assay: Agonist activity at human MC3R stably expressed in human Flp-In-293 cells assessed as cAMP accumulation at 1 uM incubated for 45 mins in presence of IBMX by Lance Ultra cAMP assay; type: functional, cell-based; conditions: filed as agonist
Melanocortin receptor 5 [7] = molecular target: T1, Melanocortin receptor 5; assay: Agonist activity at human MC5R stably expressed in human Flp-In-293 cells assessed as cAMP accumulation at 1 uM incubated for 45 mins in presence of IBMX by Lance Ultra cAMP assay; type: functional, cell-based
Melanocortin receptor 4 [8] = molecular target: T3, Melanocortin receptor 4; assay: Agonist activity at human MC4R stably expressed in human Flp-In-293 cells assessed as cAMP accumulation incubated for 45 mins in presence of IBMX by Lance Ultra cAMP assay; type: functional, cell-based
[9] = molecular target: T2, Melanocyte-stimulating hormone receptor; assay: Agonist activity at human MC1R stably expressed in human Flp-In-293 cells assessed as cAMP accumulation incubated for 45 mins in presence of IBMX by Lance Ultra cAMP assay; type: functional, cell-based
Target sequence in this assay (Q01726 whole entry): as the sequence (Q01726 whole entry, looked up) above

Melanocortin receptor 3 [10] = molecular target: T4, Melanocortin receptor 3; assay: Agonist activity at human MC3R stably expressed in human Flp-In-293 cells assessed as cAMP accumulation incubated for 45 mins in presence of IBMX by Lance Ultra cAMP assay; type: functional, cell-based
Melanocortin receptor 5 [11] = molecular target: T1, Melanocortin receptor 5; assay: Agonist activity at human MC5R stably expressed in human Flp-In-293 cells assessed as cAMP accumulation incubated for 45 mins in presence of IBMX by Lance Ultra cAMP assay; type: functional, cell-based

T1 sequence (P33032 whole entry): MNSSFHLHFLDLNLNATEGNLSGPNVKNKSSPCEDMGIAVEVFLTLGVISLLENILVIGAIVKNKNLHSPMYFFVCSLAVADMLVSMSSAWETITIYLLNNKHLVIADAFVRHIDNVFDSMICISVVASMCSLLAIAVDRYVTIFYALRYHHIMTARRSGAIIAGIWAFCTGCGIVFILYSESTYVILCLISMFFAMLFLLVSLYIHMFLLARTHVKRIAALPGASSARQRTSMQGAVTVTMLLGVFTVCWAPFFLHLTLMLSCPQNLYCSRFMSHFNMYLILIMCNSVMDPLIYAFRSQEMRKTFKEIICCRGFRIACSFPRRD

SMILES	Ki (Melanocortin receptor 5 [1])	Activity [2]	Ki (Melanocortin receptor 4 [3]; read-out: pKi (converted))	Ki [4]	Ki (Melanocortin receptor 3 [5])	Activity (Melanocortin receptor 3 [6])	Activity (Melanocortin receptor 5 [7])	EC50 (Melanocortin receptor 4 [8]; read-out: pEC50 (converted))	EC50 ([9]; read-out: pEC50 (converted))	EC50 (Melanocortin receptor 3 [10])	Activity (Melanocortin receptor 5 [7]; filed as agonist)	EC50 (Melanocortin receptor 5 [11])	Ki (Melanocortin receptor 4 [3]; read-out: Ki)	EC50 ([9]; read-out: EC50)	EC50 (Melanocortin receptor 4 [8]; read-out: EC50)
N#Cc1ccc2c(c1)C(=O)N[C@@H](Cc1c[nH]cn1)C(=O)N[C@H](Cc1ccccc1)C(=O)N[C@@H](CCCNC(=N)N)C(=O)N[C@@H](Cc1c[nH]c3ccccc13)C(=O)N[C@H](C(N)=O)CS2	> 1000 nM	58%	0.794 nM	158 nM	661 nM	44%	0%	63.1 nM							
C[C@@H]1NC(=O)c2cc([N+](=O)[O-])ccc2SC[C@@H](C(N)=O)NC(=O)[C@H](Cc2c[nH]c3ccccc23)NC(=O)[C@H](CCCNC(=N)N)NC(=O)[C@@H](Cc2ccccc2)NC(=O)[C@H](Cc2c[nH]cn2)NC1=O	> 1000 nM		3.02 nM	56.2 nM	513 nM		11%	20 nM	63.1 nM	1260 nM					
N=C(N)NCCC[C@@H]1NC(=O)[C@@H](Cc2ccccc2)NC(=O)[C@H](Cc2cnc[nH]2)NC(=O)c2cc([N+](=O)[O-])ccc2SC[C@@H](C(N)=O)NC(=O)[C@H](Cc2c[nH]c3ccccc23)NC1=O							3%								
C[C@H]1NC(=O)c2cc(C(=N)N)ccc2SC[C@@H](C(N)=O)NC(=O)[C@H](Cc2c[nH]c3ccccc23)NC(=O)[C@H](CCCNC(=N)N)NC(=O)[C@@H](Cc2ccccc2)NC(=O)[C@H](Cc2c[nH]cn2)NC1=O	> 1000 nM		0.162 nM	3.55 nM	148 nM			0.275 nM	4.79 nM	91.2 nM	41%				
C[C@H]1NC(=O)c2cc([N+](=O)[O-])ccc2SC[C@@H](C(N)=O)NC(=O)[C@H](Cc2c[nH]c3ccccc23)NC(=O)[C@H](CCCNC(=N)N)NC(=O)[C@@H](Cc2ccccc2)NC(=O)[C@H](Cc2c[nH]cn2)NC1=O	> 1000 nM		0.102 nM	1.12 nM	79.4 nM		15%	1 nM	1.58 nM	200 nM					
NC(=O)[C@@H]1CSc2ccc([N+](=O)[O-])cc2C(=O)N[C@@H](Cc2cnc[nH]2)C(=O)N[C@H](Cc2ccccc2)C(=O)N[C@@H](CCCN=C(N)N)C(=O)N[C@@H](Cc2c[nH]c3ccccc23)C(=O)N1	> 1000 nM		1.58 nM	126 nM	316 nM			501 nM	1260 nM	5010 nM					
C[C@@H]1NC(=O)c2cc(-c3cn([C@@H]4O[C@H](CO)[C@@H](O)[C@H](O)[C@H]4O)nn3)ccc2SC[C@@H](C(N)=O)NC(=O)[C@H](Cc2c[nH]c3ccccc23)NC(=O)[C@H](CCCNC(=N)N)NC(=O)[C@@H](Cc2ccccc2)NC(=O)[C@H](Cc2c[nH]cn2)NC1=O	> 1000 nM			2.51 nM	174 nM			0.135 nM	16.6 nM	63.1 nM		295 nM	0.06 nM		
C#Cc1ccc2c(c1)C(=O)N[C@@H](Cc1c[nH]cn1)C(=O)N[C@H](Cc1ccccc1)C(=O)N[C@@H](CCCNC(=N)N)C(=O)N[C@@H](Cc1c[nH]c3ccccc13)C(=O)N[C@H](C(N)=O)CS2	> 1000 nM		0.234 nM	64.6 nM	741 nM		14%	89.1 nM	34.7 nM	316 nM					
C[C@@H]1NC(=O)c2cc(NC(=S)Nc3ccc4c(c3)C(=O)OC43c4ccc(O)cc4Oc4cc(O)ccc43)ccc2SC[C@@H](C(N)=O)NC(=O)[C@H](Cc2c[nH]c3ccccc23)NC(=O)[C@H](CCCNC(=N)N)NC(=O)[C@@H](Cc2ccccc2)NC(=O)[C@H](Cc2c[nH]cn2)NC1=O						73%			20.9 nM		64%			24 nM	0.98 nM
C#Cc1ccc2c(c1)C(=O)N[C@H](C)C(=O)N[C@@H](Cc1c[nH]cn1)C(=O)N[C@H](Cc1ccccc1)C(=O)N[C@@H](CCCNC(=N)N)C(=O)N[C@@H](Cc1c[nH]c3ccccc13)C(=O)N[C@H](C(N)=O)CS2	> 1000 nM		0.457 nM	3.39 nM	132 nM			0.447 nM	2.24 nM	34.7 nM		372 nM			
C[C@H]1NC(=O)c2cc(N)ccc2SC[C@@H](C(N)=O)NC(=O)[C@H](Cc2c[nH]c3ccccc23)NC(=O)[C@H](CCCNC(=N)N)NC(=O)[C@@H](Cc2ccccc2)NC(=O)[C@H](Cc2c[nH]cn2)NC1=O	> 1000 nM		0.148 nM	5.01 nM	97.7 nM		17%	1.58 nM	10 nM	50.1 nM					
N=C(N)NCCC[C@@H]1NC(=O)[C@@H](Cc2ccccc2)NC(=O)[C@H](Cc2c[nH]cn2)NC(=O)c2cc(N)ccc2SC[C@@H](C(N)=O)NC(=O)[C@H](Cc2c[nH]c3ccccc23)NC1=O	> 1000 nM		0.331 nM	269 nM	813 nM	42%		316 nM	50.1 nM		60%				
C[C@H]1NC(=O)[C@H](Cc2c[nH]c3ccccc23)NC(=O)[C@H](CCCNC(=N)N)NC(=O)[C@@H](Cc2ccccc2)NC(=O)[C@H](Cc2c[nH]cn2)NC(=O)c2cc([N+](=O)[O-])ccc2SC[C@@H](C(N)=O)NC1=O	> 1000 nM		0.871 nM	79.4 nM	437 nM		1%	5.01 nM	33.9 nM	7.94 nM					
C[C@H]1NC(=O)c2cc(C#N)ccc2SC[C@@H](C(N)=O)NC(=O)[C@H](Cc2c[nH]c3ccccc23)NC(=O)[C@H](CCCNC(=N)N)NC(=O)[C@@H](Cc2ccccc2)NC(=O)[C@H](Cc2c[nH]cn2)NC1=O	> 1000 nM		0.141 nM	3.8 nM	263 nM		34%	0.501 nM	2.69 nM	39.8 nM					
C[C@@H]1NC(=O)[C@H](Cc2c[nH]c3ccccc23)NC(=O)[C@H](CCCNC(=N)N)NC(=O)[C@@H](Cc2ccccc2)NC(=O)[C@H](Cc2c[nH]cn2)NC(=O)c2cc([N+](=O)[O-])ccc2SC[C@@H](C(N)=O)NC1=O	> 1000 nM		1.26 nM	1.26 nM	7.94 nM		5%	6.31 nM	9.77 nM	31.6 nM					
